In patent US10577378B2, “EIF4A-inhibiting compounds and methods related thereto” (eFFECTOR Therapeutics, Inc., priority 2015, dated 2020):
pIC50: −log10 of the molar value.

tested on: MDA-MB-231 human breast cancer cells; assay: Cell proliferation assay (CellTiter-Glo, 72 hours treatment); format: cell-based; settings: Homo sapiens; MDA-MB-231 cells, 72 hours at 37° C., CellTiter-Glo; read-out: MDA-MB-231 cell proliferation assay (IC50)
Outline: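 MDA-MB-231 cells seeded at 2,500 cells/well, treated next day with compound or DMSO vehicle for 72 h at 37 °C. Proliferation read by CellTiter-Glo; IC50 from sigmoidal non-linear regression, binned as +++ (<100 nM), ++ (100–1000 nM), + (>1000 nM).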

| Structure (SMILES) | pIC50 |
| --- | --- |
| COc1nc(Cl)cc2c1[C@]1(O)[C@H](O)[C@H](C(=O)O)[C@@H](c3ccccc3)[C@]1(c1ccc(Br)cc1)O2 (racemic) [295F, rac-(5aR,6S,7R,8R,8aS)-5a-(4-bromophenyl)-3-chloro-8,8a-dihydroxy-1-methoxy-6-phenyl-5a,7,8,8a-tetrahydro-6H-cyclopenta[4,5]furo[3,2-c]pyridine-7-carboxylic acid] | > 7.00 |
| COc1cncc2c1[C@]1(O)[C@@H](CN3CC4(COC4)C3)[C@H](CO)[C@@H](c3ccccc3)[C@]1(c1ccc(Br)cc1)O2 (racemic) [compound 201, Rac-(4bR,5R,6R,7S,7aR)-5-((2-oxa-6-azaspiro[3.3]heptan-6-yl)methyl)-7a-(4-bromophenyl)-6-(hydroxymethyl)-4-methoxy-7-phenyl-5,6,7,7a-tetrahydro-4bH-cyclopenta[4,5]furo[2,3-c]pyridin-4b-ol] | > 7.00 |
| CN(C)C(=O)[C@H]1[C@@H](O)[C@@]2(O)c3ncc(C#N)cc3O[C@@]2(c2ccc(C#N)cc2)[C@@H]1c1ccccc1 (single isomer, unassigned) [2F] | 6.00 to 7.00 |
| CN(C)C(=O)[C@H]1[C@@H](O)[C@@]2(O)c3ncc(Cl)cc3O[C@@]2(c2ccc(C#N)cc2)[C@@H]1c1ccccc1 (single isomer, unassigned) [3F] | > 7.00 |
| COc1ccc([C@@]23Oc4cc(C#N)cnc4[C@]2(O)[C@H](O)[C@H](C(=O)N(C)C)[C@H]3c2ccccc2)cc1 (single isomer, unassigned) [4F] | 6.00 to 7.00 |
| COc1ccc([C@@]23Oc4cc(Cl)cnc4[C@]2(O)[C@H](O)[C@H](C(=O)N(C)C)[C@H]3c2ccccc2)cc1 (single isomer, unassigned) [5F] | 6.00 to 7.00 |
| COc1cnc2c(c1)O[C@@]1(c3ccc(C#N)cc3)[C@H](c3ccccc3)[C@@H](C(=O)N(C)C)[C@@H](O)[C@@]21O (single isomer, unassigned) [6F] | 6.00 to 7.00 |
| Cc1ccc([C@@]23Oc4cc(Cl)cnc4[C@]2(O)[C@H](O)[C@H](C(=O)N(C)C)[C@H]3c2ccccc2)cc1 (single isomer, unassigned) [7F] | 6.00 to 7.00 |
| CN(C)C(=O)[C@H]1[C@@H](O)[C@@]2(O)c3ncc(Cl)cc3O[C@@]2(c2ccc(C(F)(F)F)cc2)[C@@H]1c1ccccc1 (single isomer, unassigned) [8F] | 6.00 to 7.00 |
| CN(C)C(=O)[C@H]1[C@@H](O)[C@@]2(O)c3ncccc3O[C@@]2(c2ccc(C#N)cc2)[C@@H]1c1ccccc1 (single isomer, unassigned) [9F] | < 6.00 |
| CN(C)C(=O)[C@H]1[C@@H](O)[C@@]2(O)c3ncc(Cl)cc3O[C@@]2(c2ccc(F)cc2)[C@@H]1c1ccccc1 (single isomer, unassigned) [10F] | < 6.00 |
| CN(C)C(=O)[C@H]1[C@@H](O)[C@@]2(O)c3ncc(Cl)cc3O[C@@]2(c2ccc(Cl)cc2)[C@@H]1c1ccccc1 (single isomer, unassigned) [11F] | 6.00 to 7.00 |
| CN(C)C(=O)[C@H]1[C@@H](O)[C@@]2(O)c3ncc(Cl)cc3O[C@@]2(c2ccc(S(C)(=O)=O)cc2)[C@@H]1c1ccccc1 (single isomer, unassigned) [12F] | < 6.00 |
| CN(C)C(=O)[C@H]1[C@@H](O)[C@@]2(O)c3ncc(Cl)cc3O[C@@]2(c2ccc(C(F)F)cc2)[C@@H]1c1ccccc1 (single isomer, unassigned) [16F] | 6.00 to 7.00 |
| CN(C)C(=O)[C@H]1[C@@H](O)[C@@]2(O)c3ncc(Cl)cc3O[C@@]2(c2ccc(OC(F)(F)F)cc2)[C@@H]1c1ccccc1 (single isomer, unassigned) [17F] | 6.00 to 7.00 |
| N#Cc1ccc([C@@]23Oc4cc(Cl)cnc4[C@]2(O)[C@H](O)[C@H](C(N)=O)[C@H]3c2ccccc2)cc1 (single isomer, unassigned) [18F] | > 7.00 |
| CNC(=O)[C@H]1[C@@H](O)[C@@]2(O)c3ncc(Cl)cc3O[C@@]2(c2ccc(C#N)cc2)[C@@H]1c1ccccc1 (single isomer, unassigned) [20F] | > 7.00 |
| CN(C)C(=O)[C@H]1[C@@H](O)[C@@]2(O)c3nn(C)cc3O[C@@]2(c2ccc(C#N)cc2)[C@@H]1c1ccccc1 (single isomer, unassigned) [23F] | < 6.00 |
| COc1cncc2c1[C@]1(O)[C@H](O)[C@H](C(=O)N(C)C)[C@@H](c3ccccc3)[C@]1(c1ccc(C#N)cc1)O2 (single isomer, unassigned) [64F] | > 7.00 |
| COc1cncc2c1[C@]1(O)[C@H](O)[C@H](CN(C)C)[C@@H](c3ccccc3)[C@]1(c1ccc(C#N)cc1)O2 (single isomer, unassigned) [66F] | > 7.00 |
| COc1cncc2c1[C@]1(O)[C@H](O)[C@H](CN3CCNCC3)[C@@H](c3ccccc3)[C@]1(c1ccc(C#N)cc1)O2 (single isomer, unassigned) [67F] | 6.00 to 7.00 |
| CCN(CC)C[C@H]1[C@@H](O)[C@@]2(O)c3c(OC)cncc3O[C@@]2(c2ccc(C#N)cc2)[C@@H]1c1ccccc1 (single isomer, unassigned) [73F] | > 7.00 |
| COc1cncc2c1[C@]1(O)[C@@H]3OC(=O)N[C@@H]3[C@@H](c3ccccc3)[C@]1(c1ccc(C#N)cc1)O2 (single isomer, unassigned) [81F] | > 7.00 |

| Structure (SMILES) | pIC50 |
| --- | --- |
| N#Cc1ccc([C@@]23Oc4cc(Cl)cnc4[C@]2(O)[C@H](O)[C@H](S(=O)(=O)N2CCCC2)[C@H]3c2ccccc2)cc1 (single isomer, unassigned) [83F] | > 7.00 |
| CN(C)C(=O)[C@H]1[C@@H](O)[C@@]2(O)c3ccncc3O[C@@]2(c2ccc(C#N)cc2)[C@@H]1c1ccccc1 (single isomer, unassigned) [95F] | 6.00 to 7.00 |
| CN(C)C(=O)[C@H]1[C@@H](O)[C@@]2(O)c3c(Cl)cncc3O[C@@]2(c2ccc(C#N)cc2)[C@@H]1c1ccccc1 (single isomer, unassigned) [98F] | 6.00 to 7.00 |
| COc1cncc2c1[C@]1(O)[C@H](O)[C@H](S(C)(=O)=O)[C@@H](c3ccccc3)[C@]1(c1ccc(C#N)cc1)O2 (single isomer, unassigned) [102F] | 6.00 to 7.00 |
| COc1cncc2c1[C@]1(O)[C@H](O)[C@H](CN(C)C)[C@@H](c3ccccc3)[C@]1(c1ccc(C(F)F)cc1)O2 (single isomer, unassigned) [106F] | 6.00 to 7.00 |
| COc1cncc2c1[C@]1(O)[C@H](O)[C@H](CN(C)C)[C@@H](c3ccccc3)[C@]1(c1ccc(C(F)(F)F)cc1)O2 (single isomer, unassigned) [107F] | 6.00 to 7.00 |
| CN(C)C[C@@H]1[C@@H](O)[C@@]2(O)c3ncc(Cl)cc3O[C@@]2(c2ccc(C(F)F)cc2)[C@@H]1c1ccccc1 (single isomer, unassigned) [108F] | 6.00 to 7.00 |
| CN(C)C[C@H]1[C@@H](O)[C@@]2(O)c3ncc(Cl)cc3O[C@@]2(c2ccc(C(F)(F)F)cc2)[C@@H]1c1ccccc1 (single isomer, unassigned) [109F] | 6.00 to 7.00 |
| COc1cncc2c1[C@]1(O)[C@H](O)[C@H](CN3CCOCC3)[C@@H](c3ccccc3)[C@]1(c1ccc(C#N)cc1)O2 (single isomer, unassigned) [110F] | 6.00 to 7.00 |
| COc1cncc2c1[C@]1(O)[C@H](O)[C@H](CN(C)CC(F)F)[C@@H](c3ccccc3)[C@]1(c1ccc(C#N)cc1)O2 (single isomer, unassigned) [112F] | 6.00 to 7.00 |
| COc1cncc2c1[C@]1(O)[C@H](O)[C@H](CN3CCC(F)(F)CC3)[C@@H](c3ccccc3)[C@]1(c1ccc(C#N)cc1)O2 (single isomer, unassigned) [113F] | 6.00 to 7.00 |
| COc1cncc2c1[C@]1(O)[C@H](O)[C@H](CNCC(F)F)[C@@H](c3ccccc3)[C@]1(c1ccc(C#N)cc1)O2 (single isomer, unassigned) [115F] | 6.00 to 7.00 |
| COc1cncc2c1[C@]1(O)[C@@H](CO)C[C@@H](c3ccccc3)[C@]1(c1ccc(C#N)cc1)O2 (single isomer, unassigned) [120F] | > 7.00 |
| COc1cncc2c1[C@]1(O)[C@H](O)[C@H](CN3CC(F)(F)C3)[C@@H](c3ccccc3)[C@]1(c1ccc(C#N)cc1)O2 (single isomer, unassigned) [122F] | 6.00 to 7.00 |
| COc1cncc2c1[C@]1(O)[C@H](O)[C@H](S(=O)(=O)N3CCOCC3)[C@@H](c3ccccc3)[C@]1(c1ccc(C#N)cc1)O2 (single isomer, unassigned) [126F] | 6.00 to 7.00 |
| COc1nc(C#N)cc2c1[C@]1(O)[C@H](O)[C@H](CN(C)C)[C@@H](c3ccccc3)[C@]1(c1ccc(C#N)cc1)O2 (single isomer, unassigned) [139F] | > 7.00 |
| COc1nc(Cl)cc2c1[C@]1(O)[C@H](O)[C@H](CN(C)C)[C@@H](c3ccccc3)[C@]1(c1ccc(C#N)cc1)O2 (single isomer, unassigned) [140F] | > 7.00 |
| COc1nc(C#N)cc2c1[C@]1(O)[C@H](O)[C@H](CN(C)C)[C@@H](c3ccccc3)[C@]1(c1ccc(Cl)cc1)O2 (single isomer, unassigned) [145F] | > 7.00 |
| COc1nc(C#N)cc2c1[C@]1(O)[C@H](O)[C@H](CN(C)C)[C@@H](c3ccccc3)[C@]1(c1ccc(C(F)(F)F)cc1)O2 (single isomer, unassigned) [147F] | > 7.00 |
| COc1nc(C#N)cc2c1[C@]1(O)[C@H](O)[C@H](CN3CCOCC3)[C@@H](c3ccccc3)[C@]1(c1ccc(C#N)cc1)O2 (single isomer, unassigned) [151F] | > 7.00 |
| COc1nc(Cl)cc2c1[C@]1(O)[C@H](O)[C@H](CN3CCN(C)CC3)[C@@H](c3ccccc3)[C@]1(c1ccc(C#N)cc1)O2 (single isomer, unassigned) [198Fa] | > 7.00 |
| COc1nc(C#N)cc2c1[C@]1(O)[C@H](O)[C@H](CN3CCC3)[C@@H](c3ccccc3)[C@]1(c1ccc(C#N)cc1)O2 (single isomer, unassigned) [212F] | > 7.00 |
| COc1cc2c(c(OC)n1)[C@]1(O)[C@H](O)[C@H](CN(C)C)[C@@H](c3ccccc3)[C@]1(c1ccc(C#N)cc1)O2 (single isomer, unassigned) [231F] | > 7.00 |

same assay, conditions: MDA-MB-231 cells, 72 hours at 37° C., CellTiter-Glo; read-out: MDA-MB-231 cell proliferation assay (IC50)

| pIC50 | Structure (SMILES) |
| --- | --- |
| > 7.00 | COc1cncc2c1[C@]1(O)[C@H](O)[C@H](CN(C)C)[C@@H](c3ccccc3)[C@]1(c1ccc(C#N)cc1)O2 (single isomer, unassigned) [103F] |
